Results reported in US7429482B2, “Screening tools for discovery of novel anabolic agents” (United States of America as represented by the Department …, priority 2005, dated 2008).
“Also recorded” adds a separate entry of the source.

Experiments:
human IGF-1 promoter = assay: Human IGF-1 promoter luciferase reporter assay in HepG2 cells; type: cell-based
Description: pREP4.hAR, expressing full length human AR, and pCMV.Sport.β-Gal, expressing β-galactosidase under a CMV promoter, were as described (Zhao et al., Steroids 69: 357-366, 2004). pcDNA5.rGR, expressing rat glucocorticoid receptor, was provided by Dr. Diane Robins (University of Michigan). The rARC562G vector expressing rat AR with a C562G mutation in the DBD, which results in a loss of DNA binding. The IGF-1 reporter genes pOLuc.1630, pOLuc1300, pOLuc926, pOLuc 320 were provided by Dr. Peter Rotwein (Oregon Health & Science University). These reporters expressed firefly luciferase under the control of 320 to 1630 bases upstream of the transcriptional start site of the human IGF-1 promoter as described in (Kim et al., Mol Endocrinol 5: 1964-1972, 1991). pEGX 4T-1 hAR2, expressing GST fused to the N-terminus of AR DNA-binding domain, was provided by Robert J. Matusik, Ph.D. (Vanderbuilt University Medical Center). pRL-CMV expressing Renilla luciferase was from Promega (Madison, Wis.).
HepG2 cells (ATCC, Bethesda, Md.) were maintained in Dulbecco's modified Eagle's medium (DMEM), supplemented with 10% fetal bovine serum (FBS) and antibiotics (penicillin 100 U/ml, streptomycin 100 μg/ml). Cells were seeded at 5×10^4 cells/per well into wells of 24-well plates containing DMEM supplemented with 10% charcoal-dextran stripped FBS (CDS-FBS). The next day, cells were transfected with a total of 300 ng DNA per well using Lipofectamine Plus (Invitrogen) with plasmids as indicated in the figure legends. Three hours after transfection, cells were covered with DMEM supplemented with 10% CDS-FBS and either hormone dissolved in ethanol, or ethanol, as indicated in the figures. […] After overnight incubation, activities of firefly and Renilla luciferase were determined using the Dual Luciferase Assay system (Promega).
Reporter plasmids expressing firefly luciferase under the control of upstream regions of the IGF-1 promoter were constructed by PCR amplification of segments of interest using primers shown in Table 2, using pOLuc-1630 as a template. The location of each amplified fragment is relative to the transcriptional start site. PCR amplification was conduced using a high fidelity Taq polymerase (Pfx, Invitrogen). PCR products were cloned into pCR2.1-TOPO TA (Invitrogen) and the sequences of the inserts were verified. Inserts were excised with Kpn I and Xho I, and were subcloned into pGL3-Promoter (Promega) at these same sites. PGL3-Promoter expresses firefly luciferase under the control of a minimal promoter.

human MAFbx promoter = assay: Human MAFbx promoter luciferase reporter assay in C2C12 / C2C12.AR cells; type: cell-based
Description: The reporter genes pMAF3.1, pMAF2.4, pMAF948, pMAF400, and pMAF400-241 express firefly luciferase under the control of promoter regions of the human MAFbx gene and are described in Example 1. The rARC562G vector, encoding rat AR with a C562->G mutation in the first zinc binding module that disrupts binding of AR to DNA was described by Palvimo et al. (Mol Endocrinol 7: 1399-1407, 1993) pAR.4RKM (expressing AR with 4 R/K->M mutations in the nuclear localization sequence that is unable to enter the nucleus) and pAR.ABC (lacking the ligand binding domain) were described by Zhou et al. (J Biol Chem 269: 13115-13123, 1994). The pBabe.puro retroviral backbone described by Morgenstern and Land (Nucleic Acids Res 18: 3587-3596, 1990) was modified by introduction of a Not1 site. The ARE reporter gene expressing firefly luciferase under control of the MMTV hormone response element, and pSP72hAR-1, containing an insert of the full-length cDNA clone of the human AR, were provided by Dr. Diane Robins (University of Michigan). pRL-CMV expressing Renilla luciferase was from Promega (Madison, Wis.).
C2C12 cells (American Type Culture Collection, Manassas, Va.) were maintained in Dulbeco's modified Eagle's Medium (DMEM) containing 10% fetal bovine serum (FBS) and penicillin (100 U/ml)/streptomycin (100 μg/ml) (growth medium). Cells were incubated at 37° C. in humidified air containing 10% CO2. 293T cells (American Type Culture Collection) were maintained in growth medium as above. Transfection was achieved using Lipofectamine-Plus (Invitrogen, Carlsbad, Calif.) using 200 ng total DNA per well.
Cells were seeded into wells of 24-well plates (5×10^5 cells/well) then maintained overnight in DMEM with 10% CDS-FBS. Cells were co-transfected with the various reporter genes and pRL-CMV. Cells were incubated in the transfection mixture overnight, then covered with DMEM supplemented with 10% charcoal-dextran-stripped FBS (CDS-FBS) and either ethanol (EtOH) or hormones dissolved in EtOH. Cells were maintained for an additional 24 hours, at which time both firefly and renilla luciferase activity were determined using the Dual Luciferase Assay (Promega, Madison, Wis.) and a Berthold 96-well plate luminometer. Firefly luciferase activities were normalized relative to renilla luciferase. Ethanol concentrations were less than 0.1%.

MAFbx = MAFbx expression in gastrocnemius of rats infused with dexamethasone with or without testosterone (qPCR); type: in vivo; settings: rat, dexamethasone 0.7 mg/kg/day infusion, 7 days
Protocol: Muscle was flash frozen on dry ice after excision. Total RNA was isolated by phenol:chloroform extraction (Chomczynski and Sacchi, Anal Biochem 162: 156-159, 1987) and further enriched using RNAeasy minicolumns (Qiagen) with digestion on the column with RNAse-free DNAse (Qiagen).
RNA was quantified by absorbance at 260 nm. One microgram of total RNA was used to prepare cDNA libraries using the High Capacity cDNA Archive Kit (Applied Biosystems, Foster City, Calif.). Libraries were diluted 25-fold with water. Real time PCR was performed using Taqman 2×PCR buffer (Applied Biosystems) and an Applied Biosystems 7500 thermocycler. Data were normalized relative to that for 18S RNA. Relative changes in expression were determined using the 2^−ΔΔCt method. Taqman Assay on Demand probes (Applied Biosystems) were used for all assays except rat 18S RNA, which was quantified using the following […]: Forward: […] (SEQ ID NO:15); Reverse: […] (SEQ ID NO:16); Probe: FAM-[…] (SEQ ID NO:17; Labeled with FAM and non-fluoresent quencher, NFQ, at 5′ and 3′ ends, repsectively).
Male Wistar rats weighing 250 gm were anesthetized with ketamine/xylazine followed by implantation Alzet miniosmotic pumps administering vehicle (propylene glycocol), dexamethasone (0.7 mg/kg/day), or dexamethasone plus testosterone (28 mg/kg/day). […]

MAFbx mRNA = MAFbx mRNA levels in AR6 / C2C12.AR cells (qPCR); type: cell-based, mouse; settings: dexamethasone overnight
Protocol: (A) Rats were administered test agents as indicated in the figure for 7-days, at which time animals were sacrificed and MAFbx expression was determined in gastrocnemius muscles by qPCR. Data are mean values±SEM for at least 8 animals. * p<0.05 vs vehicle, t-test. (B) AR6 cells were seeded into 6-well plates and incubated overnight in growth medium. Medium was replaced with DMEM containing 2% horse serum followed by incubation for an additional 48 hours. Hormones or vehicle (EtOH) were added to the medium and cells were incubated overnight, at which time MAFbx mRNA levels were determined by qPCR and expressed as fold-induction versus levels in cells incubated with EtOH. Data are mean values±SEM for three determinations each performed in triplicate. * p<0.05 vs. EtOH (ANOVA). (C) Effect of testosterone on MAFbx mRNA half-life. C2C12.AR cells were incubated overnight in growth medium supplemented with testosterone or vehicle (EtOH). […] Levels of MAFbx mRNA are expressed as a percentage of those at time zero. […]
RNA was quantified by absorbance at 260 nm. […] Relative changes in expression were determined using the 2^−ΔΔCt method. Taqman Assay on Demand probes (Applied Biosystems) were used for all assays except rat 18S RNA, which was quantified using the following Assay on Demand Probes: Forward: […] […]

SMILES | activation of the upstream promoter of the human IGF-1 gene (human IGF-1 promoter; Hep G2 cells, FIG. 18) | suppression of reporter under control of 3.1 of the MAFbx upstream promoter (human MAFbx promoter; C2C12 muscle cells, 5 μM) [%] | expression of MAFbx reporter (general statement) (human MAFbx promoter; cells transduced with the MAFbx reporter construct) | activation of reporters incorporating ARE2 or both AREs (p3-13a and p3-32) (human IGF-1 promoter; HepG2 + GR, dexamethasone) [fold] | induction of luciferase expression, reporters incorporating ARE1 (p3-230 and p3-22) (human IGF-1 promoter; HepG2 + GR, dexamethasone) | increase in expression of MAFbx in gastrocnemius muscle (MAFbx) [fold] | increase in luciferase expression of pMAF3.1 reporter (human MAFbx promoter; C2C12.AR cells, dexamethasone) | increase in MAFbx mRNA expression (MAFbx mRNA)
C[C@]12COC(=O)C[C@@H]1CC[C@@H]1[C@@H]2CC[C@@]2(C)[C@H]1CC[C@]2(C)O [oxandrolone] | does not induce and not | 15 | does not decrease; also recorded: less effective | – | – | – | – | –
C[C@@H]1C[C@H]2[C@@H]3CCC4=CC(=O)C=C[C@]4(C)[C@@]3(F)[C@@H](O)C[C@]2(C)[C@@]1(O)C(=O)CO [dexamethasone] | – | – | – | 5 | less than 2 fold | ~4 | more than 1.5 fold | approximately 3 fold
